Data as given in ChEMBL document CHEMBL3259590, “The discovery of diazepinone-based 5-HT3 receptor partial agonists” (Bioorg Med Chem Lett, 2014).

Legend:
Mus musculus [1] = test: Inhibition of 5-HT induced-bradycardia in ICR mouse von Bezold-Jarisch reflex model at 1 mg/kg, po after 60 mins relative to control; type: functional; conditions: 1 h
[2] = Intrinsic clearance in human liver microsomes; type: ADME; conditions: read-out: CLH
Cytochrome P450 2D6 = Cytochrome P450 2D6 (Homo sapiens, UniProt P10635); test: Inhibition of CYP2D6 (unknown origin); type: ADME
[3] = molecular target: T1, 5-hydroxytryptamine receptor 3A (Homo sapiens, UniProt P46098); test: Agonist activity at human 5-HT3A receptor expressed in HEK293 cells in presence of carbachol; type: cell-based
T1 sequence (P46098 whole entry): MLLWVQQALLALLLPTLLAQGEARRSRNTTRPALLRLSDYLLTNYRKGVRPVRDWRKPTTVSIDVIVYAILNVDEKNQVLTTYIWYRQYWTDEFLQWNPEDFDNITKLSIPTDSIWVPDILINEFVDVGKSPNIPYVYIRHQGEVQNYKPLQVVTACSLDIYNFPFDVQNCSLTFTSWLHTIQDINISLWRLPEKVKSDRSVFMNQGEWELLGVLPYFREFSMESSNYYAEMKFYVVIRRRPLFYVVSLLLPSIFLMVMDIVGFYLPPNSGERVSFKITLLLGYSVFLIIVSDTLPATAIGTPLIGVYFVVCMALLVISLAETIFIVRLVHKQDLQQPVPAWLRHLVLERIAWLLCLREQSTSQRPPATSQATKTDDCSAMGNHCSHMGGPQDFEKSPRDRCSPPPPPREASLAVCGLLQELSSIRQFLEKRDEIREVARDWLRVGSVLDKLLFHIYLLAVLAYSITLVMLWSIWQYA

Cytochrome P450 2B6 = molecular target: T2, Cytochrome P450 2B6 (Homo sapiens, UniProt P20813); test: Inhibition of CYP2B6 (unknown origin); type: ADME
T2 sequence (P20813 whole entry): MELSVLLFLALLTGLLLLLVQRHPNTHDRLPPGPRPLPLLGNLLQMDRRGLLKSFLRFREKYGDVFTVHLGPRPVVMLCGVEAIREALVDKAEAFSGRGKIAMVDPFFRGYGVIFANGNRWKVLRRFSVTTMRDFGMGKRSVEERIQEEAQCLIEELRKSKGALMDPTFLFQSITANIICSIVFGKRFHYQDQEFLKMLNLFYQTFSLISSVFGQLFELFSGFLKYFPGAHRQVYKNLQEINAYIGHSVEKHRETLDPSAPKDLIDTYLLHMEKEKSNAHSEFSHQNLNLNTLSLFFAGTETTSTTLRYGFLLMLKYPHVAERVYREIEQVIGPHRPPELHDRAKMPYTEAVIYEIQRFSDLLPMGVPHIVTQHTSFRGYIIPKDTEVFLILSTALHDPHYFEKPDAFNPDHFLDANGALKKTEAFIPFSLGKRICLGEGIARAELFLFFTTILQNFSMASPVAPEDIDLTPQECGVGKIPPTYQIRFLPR

Cytochrome P450 1A2 = molecular target: T3, Cytochrome P450 1A2 (Homo sapiens, UniProt P05177); test: Inhibition of CYP1A2 (unknown origin); type: ADME
T3 sequence (P05177 whole entry): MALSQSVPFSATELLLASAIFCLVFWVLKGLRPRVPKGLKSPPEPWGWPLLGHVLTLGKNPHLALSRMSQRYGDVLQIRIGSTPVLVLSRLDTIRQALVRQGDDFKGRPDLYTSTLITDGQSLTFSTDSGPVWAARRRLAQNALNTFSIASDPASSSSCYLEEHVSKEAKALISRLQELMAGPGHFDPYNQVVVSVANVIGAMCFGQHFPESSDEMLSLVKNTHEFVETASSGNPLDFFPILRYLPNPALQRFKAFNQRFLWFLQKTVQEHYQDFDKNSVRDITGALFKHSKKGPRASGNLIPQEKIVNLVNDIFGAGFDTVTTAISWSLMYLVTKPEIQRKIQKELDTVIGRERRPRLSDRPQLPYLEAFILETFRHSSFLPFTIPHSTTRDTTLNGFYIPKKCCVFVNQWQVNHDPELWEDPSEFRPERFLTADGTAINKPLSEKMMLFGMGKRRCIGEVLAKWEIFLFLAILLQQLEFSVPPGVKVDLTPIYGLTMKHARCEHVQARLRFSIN

Cytochrome P450 3A4 = Cytochrome P450 3A4 (Homo sapiens, UniProt P08684); test: Inhibition of CYP3A4 (unknown origin); type: ADME
Cytochrome P450 2C9 = Cytochrome P450 2C9 (Homo sapiens, UniProt P11712); test: Inhibition of CYP2C9 (unknown origin); type: ADME
Cytochrome P450 2C19 = Cytochrome P450 2C19 (Homo sapiens, UniProt P33261); test: Inhibition of CYP2C19 (unknown origin); type: ADME
[4] = molecular target: T1, 5-hydroxytryptamine receptor 3A; test: Displacement of [9-methyl-3H]BRL-43694 from human 5-HT3A receptor after overnight incubation by scintillation proximity assay
[5] = molecular target: T4, 5-hydroxytryptamine receptor 3A (Homo sapiens) (UniProt P46098); test: Partial agonist activity at human 5-HT3A receptor expressed in HEK293 cells assessed as change in Ca2+ level measured as intrinsic activity at 1 uM relative to 5-HT in presence of carbachol; type: cell-based
T4 sequence (whole entry): T1 sequence (P46098 whole entry)

[6] = molecular target: T5, 5-hydroxytryptamine receptor 3A (Mus musculus) (UniProt P23979); test: Partial agonist activity at mouse 5-HT3A receptor expressed in HEK293 cells assessed as change in Ca2+ level measured as intrinsic activity at 1 uM relative to 5-HT in presence of carbachol; type: cell-based
T5 sequence (whole entry): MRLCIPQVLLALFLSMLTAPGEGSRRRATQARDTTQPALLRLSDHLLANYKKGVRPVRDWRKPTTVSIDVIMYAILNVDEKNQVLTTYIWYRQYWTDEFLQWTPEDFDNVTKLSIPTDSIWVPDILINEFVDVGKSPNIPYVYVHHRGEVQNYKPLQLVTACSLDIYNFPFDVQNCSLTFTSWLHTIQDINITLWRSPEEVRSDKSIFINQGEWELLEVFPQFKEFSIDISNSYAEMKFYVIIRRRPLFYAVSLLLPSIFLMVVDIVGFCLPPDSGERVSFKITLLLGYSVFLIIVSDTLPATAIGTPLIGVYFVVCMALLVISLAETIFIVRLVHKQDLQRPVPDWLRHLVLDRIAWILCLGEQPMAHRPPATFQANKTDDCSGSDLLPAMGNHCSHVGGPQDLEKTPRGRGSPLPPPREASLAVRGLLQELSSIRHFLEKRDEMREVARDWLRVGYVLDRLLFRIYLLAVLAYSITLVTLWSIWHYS

[7] = molecular target: T6, 5-hydroxytryptamine receptor 3A (Mus musculus, UniProt P23979); test: Agonist activity at mouse 5-HT3A receptor expressed in HEK293 cells in presence of carbachol; type: cell-based
T6 sequence (P23979 whole entry): T5 sequence (whole entry)

Mus musculus [8] = test: Inhibition of 5-HT induced-bradycardia in ICR mouse von Bezold-Jarisch reflex model at 3 mg/kg, po after 60 mins relative to control; type: functional; conditions: 1 h

Chain of Cytochrome P450 2C9 (P11712 whole entry): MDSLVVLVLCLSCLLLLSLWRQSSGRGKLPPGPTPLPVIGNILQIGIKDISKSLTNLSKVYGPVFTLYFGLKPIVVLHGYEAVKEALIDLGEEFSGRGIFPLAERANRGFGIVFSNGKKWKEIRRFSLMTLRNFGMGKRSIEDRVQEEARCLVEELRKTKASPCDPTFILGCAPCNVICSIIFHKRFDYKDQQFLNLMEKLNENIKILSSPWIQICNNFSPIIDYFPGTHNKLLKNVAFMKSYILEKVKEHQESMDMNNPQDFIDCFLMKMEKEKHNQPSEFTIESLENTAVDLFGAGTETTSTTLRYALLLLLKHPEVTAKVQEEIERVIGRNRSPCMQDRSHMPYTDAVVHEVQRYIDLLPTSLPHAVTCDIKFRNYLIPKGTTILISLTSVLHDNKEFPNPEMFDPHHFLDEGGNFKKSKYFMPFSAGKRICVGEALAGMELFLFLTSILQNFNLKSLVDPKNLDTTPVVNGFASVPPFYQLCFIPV
Chain of Cytochrome P450 2C19 (P33261 whole entry): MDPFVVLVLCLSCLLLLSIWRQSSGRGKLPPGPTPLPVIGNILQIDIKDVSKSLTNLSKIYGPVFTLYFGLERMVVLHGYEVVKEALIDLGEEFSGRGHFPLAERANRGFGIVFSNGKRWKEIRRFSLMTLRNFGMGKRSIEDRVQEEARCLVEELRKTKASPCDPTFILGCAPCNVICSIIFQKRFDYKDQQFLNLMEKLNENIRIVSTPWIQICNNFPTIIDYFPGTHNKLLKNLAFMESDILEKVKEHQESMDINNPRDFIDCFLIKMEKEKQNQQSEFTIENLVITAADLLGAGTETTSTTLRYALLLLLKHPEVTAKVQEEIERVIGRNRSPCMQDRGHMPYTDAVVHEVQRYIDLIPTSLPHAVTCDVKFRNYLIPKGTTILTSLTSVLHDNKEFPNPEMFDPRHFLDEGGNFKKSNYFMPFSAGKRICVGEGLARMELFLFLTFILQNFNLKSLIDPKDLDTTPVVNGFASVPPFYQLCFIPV
Chain of Cytochrome P450 2D6 (P10635 whole entry): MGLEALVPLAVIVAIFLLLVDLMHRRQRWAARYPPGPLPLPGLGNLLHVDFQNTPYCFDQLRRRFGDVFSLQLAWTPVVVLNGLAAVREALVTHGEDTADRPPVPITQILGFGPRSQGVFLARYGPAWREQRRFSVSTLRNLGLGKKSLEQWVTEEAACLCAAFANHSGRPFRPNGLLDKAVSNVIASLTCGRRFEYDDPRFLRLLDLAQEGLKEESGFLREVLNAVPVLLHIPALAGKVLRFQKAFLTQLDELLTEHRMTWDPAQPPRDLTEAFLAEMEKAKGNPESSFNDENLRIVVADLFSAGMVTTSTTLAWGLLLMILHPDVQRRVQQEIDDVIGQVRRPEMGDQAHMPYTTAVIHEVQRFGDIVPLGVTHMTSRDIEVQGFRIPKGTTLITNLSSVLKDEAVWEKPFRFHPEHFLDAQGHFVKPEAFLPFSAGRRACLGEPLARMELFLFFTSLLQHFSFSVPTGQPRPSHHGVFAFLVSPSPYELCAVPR
Chain of Cytochrome P450 3A4 (P08684 whole entry): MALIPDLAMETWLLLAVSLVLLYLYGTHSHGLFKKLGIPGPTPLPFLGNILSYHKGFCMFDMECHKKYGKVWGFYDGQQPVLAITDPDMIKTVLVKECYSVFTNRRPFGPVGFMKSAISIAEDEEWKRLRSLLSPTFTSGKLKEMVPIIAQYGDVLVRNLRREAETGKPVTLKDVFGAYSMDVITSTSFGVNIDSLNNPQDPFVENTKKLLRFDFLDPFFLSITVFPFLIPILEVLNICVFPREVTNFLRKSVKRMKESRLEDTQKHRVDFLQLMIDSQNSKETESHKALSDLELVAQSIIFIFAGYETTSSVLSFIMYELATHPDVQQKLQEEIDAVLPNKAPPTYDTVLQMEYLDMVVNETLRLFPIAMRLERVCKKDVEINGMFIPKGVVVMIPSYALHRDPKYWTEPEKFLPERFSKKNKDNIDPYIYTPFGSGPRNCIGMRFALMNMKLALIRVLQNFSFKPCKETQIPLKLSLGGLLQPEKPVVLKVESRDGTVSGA

SMILES | inhibition in vivo at 1 mg/kg (Mus musculus [1]) | microsomal CLint [2] | IC50 (Cytochrome P450 2D6) | EC50 [3] | IC50 (Cytochrome P450 2B6) | IC50 (Cytochrome P450 1A2) | IC50 (Cytochrome P450 3A4) | IC50 (Cytochrome P450 2C9) | IC50 (Cytochrome P450 2C19) | Ki [4] | Activity [5] | Activity [6] | EC50 [7] | inhibition in vivo at 3 mg/kg (Mus musculus [8])
Cc1[nH]cnc1CN1CCc2c(c3ccccc3n2C)C1=O [ALOSETRON] | 95% | 3 µL/min/mg |  |  |  |  |  |  |  |  |  |  |  | 
O=C1c2cccc3[nH]c(=O)n(c23)CCN1[C@@H]1CN2CCC1CC2 |  | 8.4 µL/min/mg | > 50 µM | 0.178 µM | > 50 µM | > 50 µM | > 50 µM | > 50 µM | > 50 µM | 0.0057 µM | 83% |  |  | 
O=C1c2cc(F)cc3cnn(c23)CCN1[C@@H]1CN2CCC1CC2 |  | 8.8 µL/min/mg | > 50 µM | 0.178 µM | > 50 µM | > 50 µM | > 50 µM | > 50 µM | > 50 µM | 0.0064 µM | 30% | 31% | 0.178 µM | 
O=C1c2cc(Cl)cc3cnn(c23)CCN1[C@@H]1CN2CCC1CC2 |  | 3.1 µL/min/mg | > 50 µM | 0.178 µM | > 50 µM | > 50 µM | > 50 µM | > 50 µM | > 50 µM |  | 28% | 27% | 0.178 µM | 
O=C1c2cccc3ccn(c23)CCN1[C@H]1CN2CCC1CC2 |  |  |  |  |  |  |  |  |  | 0.0676 µM |  |  |  | 
COc1cc2c3c(cnn3CCN([C@@H]3CN4CCC3CC4)C2=O)c1 |  | 1.8 µL/min/mg | > 50 µM | 0.178 µM | > 50 µM | > 50 µM | > 50 µM | > 50 µM | > 50 µM | 0.0135 µM | 87% | 81% | 0.178 µM | 
O=C1c2cccc3ccn(c23)CCN1[C@@H]1CN2CCC1CC2 |  | < 1.7 µL/min/mg | > 50 µM | 0.178 µM | > 50 µM | > 50 µM | > 50 µM | > 50 µM | > 50 µM | 0.0031 µM | 7% |  |  | 
O=C1c2cccc3cnn(c23)CCN1[C@@H]1CN2CCC1CC2 |  | < 1.7 µL/min/mg | > 50 µM | 0.178 µM | > 50 µM | > 50 µM | > 50 µM | > 50 µM | > 50 µM | 0.0081 µM | 19% | 16% | 0.178 µM | 77%
Cc1cn2c3c(cc(Cl)cc13)C(=O)N([C@@H]1CN3CCC1CC3)CC2 |  | 2.3 µL/min/mg |  |  |  | 8.8 µM |  |  |  |  |  |  |  | 
Cc1cc2c3c(cnn3CCN([C@@H]3CN4CCC3CC4)C2=O)c1 |  |  |  |  |  |  |  |  |  | 0.0008 µM |  |  |  | 
